Data from publication PMC9769880, “Diverse Sensory Repertoire of Paralogous Chemoreceptors Tlp2, Tlp3, and Tlp4 in Campylobacter jejuni” (Microbiology Spectrum, 2022).
Like-named read-outs stand apart in the source and are kept apart here.

Legend:
Tlp4 [1] = biological target: Tlp4 (Campylobacter jejuni, UniProt Q0PBP3); format: binding; details: yes/no binding
How it was run: (§1)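 His-tagged periplasmic domains, 1 µg, precomplexed with anti-His plus Alexa555 secondary/tertiary antibodies, incubated on glycan and amino acid/salt arrays in PBS. Binding scored yes/no against background + 3× SD threshold, from replicate spots over three experiments.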

Tlp2 [2] = biological target: Tlp2 (Campylobacter jejuni, UniProt Q0PBZ3); format: binding; details: yes/no binding
Chain of Tlp2 (Campylobacter jejuni, UniProt Q0PBZ3) (Q0PBZ3 entry or part of it): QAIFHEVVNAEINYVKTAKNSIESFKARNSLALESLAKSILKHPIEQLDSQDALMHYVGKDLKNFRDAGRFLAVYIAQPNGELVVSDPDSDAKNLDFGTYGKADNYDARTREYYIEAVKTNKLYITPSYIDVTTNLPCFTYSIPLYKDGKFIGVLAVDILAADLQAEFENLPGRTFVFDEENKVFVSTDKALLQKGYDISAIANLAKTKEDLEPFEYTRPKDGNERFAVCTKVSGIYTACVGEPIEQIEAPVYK
How it was run: as §1

Tlp3 [3] = biological target: Tlp3 (Campylobacter jejuni, UniProt Q0P864); assay: biochemical; format: binding
Chain of Tlp3 (Campylobacter jejuni, UniProt Q0P864) (Q0P864 entry or part of it): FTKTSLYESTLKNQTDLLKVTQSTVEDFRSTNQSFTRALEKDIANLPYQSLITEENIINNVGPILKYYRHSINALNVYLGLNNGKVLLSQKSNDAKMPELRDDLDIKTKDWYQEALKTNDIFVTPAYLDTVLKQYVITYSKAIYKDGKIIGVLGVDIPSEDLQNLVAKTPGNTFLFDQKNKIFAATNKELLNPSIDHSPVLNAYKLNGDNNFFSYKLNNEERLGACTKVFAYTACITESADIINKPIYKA
How it was run: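 SPR in single-cycle kinetics mode at 25°C, PBS pH 7.2, 30 μL/min, against immobilized His-tagged recombinant periplasmic sensory domain expressed in E. coli. Ligands serially diluted 0.2 to 0.0125 mM, 10-min dissociation. KD from equilibrium fit using a report point 4 s after injection stop.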

Tlp3 [4] = format: cell-based, C. jejuni 11168-O; details: for Tlp3 CR (chemoresponse): chemotaxis of mutant compared to WT strain
How it was run: (§2)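 Nutrient-depleted chemotaxis and modified hard agar plug assays compared C. jejuni 11168-O tlp2, tlp3 and tlp4 mutants with wild type toward each ligand, separating attractants from repellents. Differences expressed as log10 changes. Nonmotile flaAB and nonchemotactic cheY mutants and mucin served as controls.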

Tlp4 [5] = format: cell-based, C. jejuni 11168-O; details: nutrient-depleted chemotaxis assay
How it was run: as §2

Tlp2 [6] = format: cell-based, C. jejuni 11168-O; details: for chemotactic response via Tlp2: nutrient-depleted chemotaxis assay
How it was run: as §2

Tlp3 [7] = tested on: Tlp3; set-up: method as in PMID 24391495; details: cited from earlier work

Chain of Tlp4 (Campylobacter jejuni, UniProt Q0PBP3) (Q0PBP3 entry or part of it): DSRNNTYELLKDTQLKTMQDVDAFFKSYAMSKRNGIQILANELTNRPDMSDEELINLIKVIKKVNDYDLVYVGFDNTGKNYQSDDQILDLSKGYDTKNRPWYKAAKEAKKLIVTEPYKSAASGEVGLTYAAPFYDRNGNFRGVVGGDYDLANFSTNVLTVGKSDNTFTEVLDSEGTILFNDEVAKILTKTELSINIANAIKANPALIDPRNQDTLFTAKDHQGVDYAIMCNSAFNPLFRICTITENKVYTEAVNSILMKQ

Row | SMILES | binding to Tlp4 on glycan/small molecule array (Tlp4 [1]) | binding to Tlp2 on glycan/small molecule array (Tlp2 [2]) | Kd (Tlp3 [3]) [µM] | Tlp3 CR (chemoresponse) (Tlp3 [4]) | chemotactic response via Tlp3 (Tlp3 [4]; nutrient-depleted chemotaxis assay) | chemotactic response via Tlp4 (Tlp4 [5]) | chemotactic response via Tlp2 (Tlp2 [6]) | chemotactic response via Tlp3 (Tlp3 [7]) | Tlp2 CR (chemoresponse) (Tlp2 [6]; chemotaxis of mutant compared to WT strain) | increase in migration (Tlp2) (Tlp2 [6]; compared to the WT strain, P < 0.05) [log]
1 | CC(=O)N[C@H]1[C@H]([C@H](O)[C@H](O)CO)OC(O)(C(=O)O)C[C@@H]1O (stereo partly shown) [Sialic acid] | interacted | interacted | 9 ± 0.2 | R | repellents | attractants | attractants | – | – | –
2 | NCCCC[C@H](N)C(=O)O [Lysine] | bound | bound | 4.3 ± 1.6 | R | – | attractant | repellent | repellent | R | 1.4
3 | C[C@H](O)[C@@H](O)[C@@H](O)[C@H](O)C=O [Fucose] | interacted | interacted | 25.2 ± 6.5 | – | – | – | – | – | – | –
